Our source for the TGI values is PubChem BioAssay (NCI).

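Where inhibition never reached the appropriate level, the endpoint shown equals the highest concentration tested. Otherwise, values were interpolated linearly from a five-concentration, 48-hour dose response in 96-well plates. TGI: total growth inhibition.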 Where a SMILES comes first, the peptide text is derived from it. The star is where a group is joined. Cbz = O=C(OCc1ccccc1)*; Boc = CC(C)(C)OC(=O)*; tBu = CC(C)(C)* Where only a bound is given, the exact number is not on record here.

Holding throughout (test): DTP human tumour cell line panel, 48 h
Test [1] relates to KM12 colon.
Test [2] concerns OVCAR-3 ovarian.
Test [3] has as its system SF-539 CNS.
The test system of test [4] is EKVX NSCLC.
For test [5], the system named is HCC-2998 colon.
Test [6] relates to CCRF-CEM leukemia.
Test [7] concerns SK-MEL-2 melanoma.
For test [8], the system named is 786-0 renal.
For test [9], the system named is UACC-62 melanoma.
Test [10] concerns HOP-62 NSCLC.
Test [11] deals with COLO 205 colon.
In test [12] the test system is PC-3 prostate.
For test [13], the system named is NCI-H23 lung.
Test [14] has as its system U251 CNS.
Test [15] has as its system UACC-257 melanoma.

Regarding `COc1cc(/C=C2\N=C(c3ccccc3)N(c3nc4c(OC)ccc(OC)c4s3)C2=O)ccc1O`, the TGI in test [1], in test [2], in test [3], in test [4], in test [5] and in test [6] was above 100 µM throughout. The TGI in test [7], in test [8], in [9], in test [10], in test [11] and in [12] was above 100 µM each time. Moreover, the TGI in test [13], in test [14] and in test [15] was above 100 µM in each case.
Take `O=c1[nH]nc(Cc2ccccc2)[nH]1`: the TGI in test [1], in [2], in [3], in test [4], in test [5] and in [6] was above 100 µM throughout. Moreover, the TGI in test [7], in test [8], in test [9], in test [10], in test [11] and in [12] was above 100 µM throughout. In addition, the TGI in test [13], in test [14] and in test [15] was above 100 µM throughout.
`Cc1ccc2c(c1)C1(C)OC(C=CC1=O)O2` (stereo not drawn): the TGI (usually the concentration giving total growth inhibition) in test [1] was determined as 2.14 µM; in [2], 1.16 µM; in [3] it was 1.27 µM; in test [4] it was 7.69 µM; in test [5], 8.15 µM; in test [6], 0.569 µM. The TGI was 5.85 µM in test [7]; 0.822 µM in [8]; 3.6 µM in test [9]; 12.2 µM in test [10]; 1.43 µM in test [11]; 3.81 µM in test [12]. The TGI is 2.38 µM in test [13], 0.549 µM in test [14] and 3.45 µM in test [15].
`COC/C=C\[C@]1(O)CCCC[C@@H]1CC(OC)OC`: the TGI in [1], in test [2], in test [3], in test [4], in test [5] and in [6] was above 100 µM throughout. Besides, the TGI in [7], in test [8], in test [9], in test [10], in test [11] and in test [12] was above 100 µM throughout. For the same molecule, the TGI in [13], in [14] and in test [15] was above 100 µM each time.
Regarding `CC(OC(C)(C)C)C(NC(=O)C(CCCCNC(=O)OC(C)(C)C)NC(=O)C(Cc1c[nH]c2ccccc12)NC(=O)C(Cc1ccccc1)NC(=O)OCc1ccccc1)C(=O)NC(Cc1ccccc1)C(=O)O` (stereo not drawn) (Cbz-FWK(Boc)T(tBu)F-OH; configuration not given here), the TGI in test [1] was above 100 µM; in test [2] it was 85 µM; in test [3] it was 59.9 µM; in test [4] it was above 100 µM; in [5], above 100 µM; in [6], above 100 µM. Further, the TGI was 92.8 µM in test [7]; above 100 µM in test [8]; 67.9 µM in test [9]; above 100 µM in test [10]; above 100 µM in [11]; above 100 µM in [12]. For the same molecule, the TGI in test [13], in [14] and in test [15] was above 100 µM each time.
As for `Cc1cccc2c(N)c3cccc(C(=O)NCC[N+](C)(C)Cc4c([N+](=O)[O-])ncn4C)c3nc12`, the TGI in test [1] is above 100 µM; in test [2], above 100 µM; in test [3], 36.9 µM; in [4], above 100 µM; in test [5], above 95.7 µM; in test [6] it was above 100 µM. In addition, the TGI is above 100 µM in test [7]; 37.2 µM in test [8]; above 100 µM in test [9]; above 50.9 µM in [10]; above 100 µM in [11]; above 100 µM in [12]. Further, the TGI is above 70.2 µM in test [13], above 100 µM in [14] and above 100 µM in test [15].
Turning to `Cc1ccc(/C=C2\CCC/C(=C\c3ccc(O)c(CN4CCCCC4)c3)C2=O)cc1`, the TGI was 8.33 µM in test [1]; 36.5 µM in test [2]; 26.6 µM in test [3]; 27.8 µM in test [4]; 15.3 µM in test [5]; above 29.1 µM in test [6]. The TGI in [7] is above 54.8 µM; in [8] it was 14.3 µM; in test [9], 9.92 µM; in test [10] it was above 51.7 µM; in test [11] it was 44.6 µM; in test [12], above 47.5 µM. Moreover, the TGI in test [13] worked out at 18.3 µM; in test [14], 37.6 µM; in test [15], 25.3 µM.
In the case of `O=C1N[C@@H](c2c[nH]c3cc(Br)ccc23)C(=O)N[C@H]1c1c[nH]c2cc(Br)ccc12`, the TGI in test [1], in test [2], in [3], in test [4], in [5] and in test [6] was above 100 µM in each case. Moreover, the TGI in test [7], in [8], in test [9], in [10], in [11] and in test [12] was above 100 µM each time. Also, the concentration for total growth inhibition (TGI) in test [13] was above 100 µM; in test [14], 60.1 µM; in test [15] it was above 100 µM.
With `Cc1ccc(C)c(COCCOCn2ccc(N)nc2=O)c1`, the TGI in [1], in [2], in test [3], in test [4], in test [5] and in test [6] was above 100 µM throughout. The TGI in [7], in test [8], in [9], in test [10], in test [11] and in test [12] was above 100 µM throughout. For the same molecule, the TGI in [13], in [14] and in test [15] was above 100 µM each time.
As to `CNc1nc2n(CCO)c(-c3ccccc3)c(-c3ccccc3)nc-2c(=O)n1`, the TGI in test [1], in [2], in test [3], in test [4], in [5] and in test [6] was above 50 µM in each case. Further, the TGI in test [7], in test [8], in test [9], in test [10], in test [11] and in test [12] was above 50 µM each time. The TGI in [13], in test [14] and in test [15] was above 50 µM each time.
Consider `COc1ccc(C2=Nn3c(nnc(Cc4ccc(Cl)cc4)c3=O)SC2)cc1`, for which the TGI is above 100 µM in [1]; 92.2 µM in test [2]; above 100 µM in [3]; above 100 µM in test [4]; above 100 µM in [5]; above 100 µM in test [6]. The TGI in test [7], in test [8], in [9], in test [10], in test [11] and in test [12] was above 100 µM throughout. For the same molecule, the TGI in test [13], in test [14] and in test [15] was above 100 µM throughout.
`COc1cc(OC)c2c(=O)c(OC)c(-c3ccc4c(c3)OCO4)oc2c1`: the TGI in test [1] is above 100 µM; in test [2] it was above 100 µM; in test [3], 44.1 µM; in test [4], above 100 µM; in test [5], above 100 µM; in [6], above 100 µM. In addition, the TGI in [7] was 42.5 µM; in test [8], 79.3 µM; in test [9] it was 72 µM; in test [10], 74.6 µM; in test [11] it was above 100 µM; in test [12], above 100 µM. In addition, the results for the TGI in [13], in test [14] and in [15] were 64 µM, 30.3 µM and above 100 µM, respectively.
`Cc1cc(=O)n2nc(CN3CCCCC3)sc2n1`: the TGI in test [1], in test [2], in test [3], in test [4], in test [5] and in test [6] was above 100 µM throughout. Besides, the TGI in test [7], in test [8], in [9], in test [10], in test [11] and in test [12] was above 100 µM in each case. Also, the TGI in test [13], in [14] and in test [15] was above 100 µM in each case.
As to `CCCCCCCCCCN(CCCCCCCCCC)C(=O)COc1c2cc(C(C)(C)C)cc1Cc1cc(C(C)(C)C)cc(c1OCC(=O)N(CCCCCCCCCC)CCCCCCCCCC)Cc1cc(C(C)(C)C)cc(c1OCC(=O)N(CCCCCCCCCC)CCCCCCCCCC)Cc1cc(C(C)(C)C)cc(c1OCC(=O)N(CCCCCCCCCC)CCCCCCCCCC)C2`, the TGI in test [1] was 24.5 µM; in [2], 29.1 µM; in test [3] it was 13.7 µM; in [4] it was 25.2 µM; in [5], 22.3 µM; in test [6], 14.1 µM. Moreover, the TGI in test [7] was 20.4 µM; in test [8], 23.3 µM; in test [9] it was 25.3 µM; in [10], 31.4 µM; in test [11] it was 29.2 µM; in test [12] it was 21.8 µM. The figures for the TGI in [13], in test [14] and in test [15] were 9.16 µM, 23.2 µM and 29.6 µM, respectively.
For `CC(=O)OC1(C)C=CC(=O)C=C1`, the TGI in test [1], in test [2], in [3], in test [4], in test [5] and in test [6] was above 100 µM in each case. In addition, the TGI in [7] was 98.4 µM; in test [8], 47.9 µM; in test [9], 35.7 µM; in test [10], 75.7 µM; in test [11], above 100 µM; in test [12], above 100 µM. Besides, the TGI turned out to be 75.2 µM in test [13], 28.7 µM in test [14] and 34.4 µM in test [15].
`CN(C)/C=N/S(=O)(=O)c1nn2c(C=O)c(-c3ccc(Cl)cc3)nc2s1`: the TGI in [1] was determined as 17.6 µM; in [2], 2.87 µM; in test [3] it was 5.21 µM; in [4], 12.7 µM; in [5], 9.75 µM; in [6], 0.701 µM. Further, the TGI in test [7] amounted to 21.3 µM; in [8], 2.5 µM; in test [9] it was 14.3 µM; in test [10], 27.5 µM; in [11], 2.81 µM; in test [12], 9.38 µM. In addition, the TGI in [13] was 9.81 µM; in test [14], 11.7 µM; in [15], 9.83 µM.
`CC1=CC(=O)N(n2c(Cc3ccccc3)n[nH]c2=O)C1=O`: the TGI in [1] was above 100 µM; in [2], above 100 µM; in [3], above 100 µM; in [4] it was above 100 µM; in [5] it was above 100 µM; in [6], 62.7 µM. Also, the TGI in test [7], in [8], in [9], in test [11], in test [12] and in test [13] was above 100 µM throughout. Further, the TGI in test [14] and in test [15] was above 100 µM in each case.
As for `O=C(Cc1ccccc1)N/N=C/c1ccccc1O`, the TGI in test [1], in test [2], in test [3], in test [4], in [5] and in [6] was above 100 µM throughout. Further, the TGI in test [7] is above 100 µM; in test [8], above 100 µM; in test [9], 47.9 µM; in test [11] it was above 100 µM; in test [12], above 100 µM; in test [13], above 100 µM. Besides, the TGI in test [14] was above 100 µM; in [15], 58 µM.
